In brackets after ≈: the same amount, converted by molar mass. Activity calls are given as the source filed them. The rule behind the calls is not given here. Square brackets hold non-standard residues; d marks the D form. Peptide text beside a SMILES is read from it. * marks the point of attachment. Octanoyl(2R-Me,7,8-dehydro) = C=CCCCC[C@@H](C)C(=O)*; Oct7ynoyl(2R-Me) = C#CCCCC[C@@H](C)C(=O)*; NMeY = CN[C@@H](Cc1ccc(O)cc1)C(=O)O; Oct(7)ynoyl = C#CCCCCCC(=O)*; NMeV = CN[C@H](C(=O)O)C(C)C; X2 = c1csc([C@@H]2CCCN2*)n1; NMeA = CN[C@@H](C)C(=O)O; X1 = CN(Cc1nccs1)*
Experiments:
LoVo = assay: Cytotoxicity against human LoVo cells; type: functional, cell-based
KB = assay: Cytotoxicity against human KB cells; type: functional, cell-based
[1] = Inhibition of trypsin
[2] = Inhibition of elastase
[3] = Induction of elastase activity
[4] = Inhibition of chymotrypsin
[5] = biological target: Prothrombin (Homo sapiens) (UniProt P00734); assay: Inhibition of thrombin
Papain (Carica papaya) = biological target: T1, Papain (Carica papaya) (UniProt P00784); assay: Inhibition of Papaya papain
T1 sequence (whole entry): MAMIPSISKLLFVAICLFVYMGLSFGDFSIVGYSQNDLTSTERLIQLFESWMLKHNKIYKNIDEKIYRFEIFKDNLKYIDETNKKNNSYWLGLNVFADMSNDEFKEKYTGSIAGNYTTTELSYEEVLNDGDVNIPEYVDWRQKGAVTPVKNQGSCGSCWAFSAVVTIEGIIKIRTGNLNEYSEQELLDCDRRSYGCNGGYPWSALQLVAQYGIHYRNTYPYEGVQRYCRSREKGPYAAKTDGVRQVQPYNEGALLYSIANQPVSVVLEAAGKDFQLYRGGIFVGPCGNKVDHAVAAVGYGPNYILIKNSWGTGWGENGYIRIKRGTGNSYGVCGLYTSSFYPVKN

Row | Compound | Activity (LoVo) | Activity (KB) | other results
1 | C#CCCCC[C@@H](C)C(=O)N(C)[C@@H](C)C(=O)N(C)[C@H](C(=O)N(C)[C@H](C(=O)N(C)[C@H](C(=O)N(C)[C@H](C(=O)N1CCC[C@H]1c1nccs1)C(C)C)C(C)C)C(C)C)C(C)C [APRAMIDE G] ({Oct7ynoyl(2R-Me)}-[NMeA][NMeV][NMeV][NMeV][NMeV]-X2) | – | – | IC50 (LoVo): 0.011 µg/mL (≈ 0.0133 µM); IC50 (KB): 0.033 µg/mL (≈ 0.0398 µM)
2 | C#CCCCCCC(=O)N(C)[C@@H](C)C(=O)N(C)[C@H](C(=O)N1CCC[C@H]1C(=O)N(C)[C@H](C(=O)N(C)[C@H](C(=O)N(C)[C@@H](Cc1ccc(OC)cc1)C(=O)N(C)Cc1nccs1)C(C)C)C(C)C)C(C)C ({Oct(7)ynoyl}-[NMeA][NMeV]P[NMeV][NMeV][NMeY](Me)-X1) | inactive | inactive | –
3 | C=CCCCC[C@@H](C)C(=O)N(C)[C@@H](C)C(=O)N(C)[C@H](C(=O)N1CCC[C@H]1C(=O)N(C)[C@H](C(=O)N(C)[C@H](C(=O)N(C)[C@@H](Cc1ccc(OC)cc1)C(=O)N(C)Cc1nccs1)C(C)C)C(C)C)C(C)C ({Octanoyl(2R-Me,7,8-dehydro)}-[NMeA][NMeV]P[NMeV][NMeV][NMeY](Me)-X1) | inactive | inactive | –
4 | C#CCCCC[C@@H](C)C(=O)N(C)[C@@H](C)C(=O)N(C)[C@H](C(=O)N1CCC[C@H]1C(=O)N(C)[C@H](C(=O)N(C)[C@H](C(=O)N(C)[C@@H](Cc1ccc(OC)cc1)C(=O)N(C)Cc1nccs1)C(C)C)C(C)C)C(C)C ({Oct7ynoyl(2R-Me)}-[NMeA][NMeV]P[NMeV][NMeV][NMeY](Me)-X1) | inactive | inactive | Activity [1]: Active; Activity [2]: inactive; Activity [3]: Active; Activity [4]: Active; Activity [5]: Active; Activity (Papain (Carica papaya)): Active
5 | C#CCCCCCC(=O)N(C)[C@@H](C)C(=O)N(C)[C@H](C(=O)N1CCC[C@H]1C(=O)N(C)[C@H](C(=O)N(C)[C@H](C(=O)N(C)[C@@H](Cc1ccc(OC)cc1)C(=O)N1CCC[C@H]1c1nccs1)C(C)C)C(C)C)C(C)C ({Oct(7)ynoyl}-[NMeA][NMeV]P[NMeV][NMeV][NMeY](Me)-X2) | inactive | inactive | –
6 | C#CCCCC[C@@H](C)C(=O)N(C)[C@@H](C)C(=O)N(C)[C@H](C(=O)N1CCC[C@H]1C(=O)N(C)[C@H](C(=O)N(C)[C@H](C(=O)N(C)[C@@H](Cc1ccc(OC)cc1)C(=O)N1CCC[C@H]1c1nccs1)C(C)C)C(C)C)C(C)C ({Oct7ynoyl(2R-Me)}-[NMeA][NMeV]P[NMeV][NMeV][NMeY](Me)-X2) | inactive | inactive | –
7 | C=CCCCC[C@@H](C)C(=O)N(C)[C@@H](C)C(=O)N(C)[C@H](C(=O)N1CCC[C@H]1C(=O)N(C)[C@H](C(=O)N(C)[C@H](C(=O)N(C)[C@@H](Cc1ccc(OC)cc1)C(=O)N1CCC[C@H]1c1nccs1)C(C)C)C(C)C)C(C)C ({Octanoyl(2R-Me,7,8-dehydro)}-[NMeA][NMeV]P[NMeV][NMeV][NMeY](Me)-X2) | inactive | inactive | –
